The record followed here is patent US9346812B2, “Substituted pyrrolopyrimidine compounds, compositions thereof, and methods of treatment therewith” (Signal Pharmaceutical LLC, priority 2013, dated 2016).

The experiment relates to CAL51 cell proliferation. Description: Cell Titer Glo Proliferation Assay (CAL51). In kind it is cell-based, human. The following applies: Homo sapiens, CAL-51; CAL51 cell proliferation, 72 h, Cell Titer Glo luminescence; read-out: Act. Level. A digest of the protocol:
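CAL51 triple-negative breast cancer cells in DMEM or RPMI with 10% FBS were treated after overnight culture with serially diluted compound at 0.2% final DMSO. After 72 h, viability was read as CellTiter-Glo luminescence.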

pIC50: −log10 of the molar value. Where only a bound is given, the exact number is not on record here.

In the case of `COc1nc(Nc2ccc(C(=O)N3CCOCC3)cc2Cl)nc2[nH]cc(-c3ccc(-c4nnc[nH]4)cc3)c12` [Example 68, (4-(5-(4-(4H-1,2,4-triazol-3-yl)phenyl)-4-methoxy-7H-pyrrolo [2,3-d]pyrimidin-2-ylamino)-3-chlorophenyl)(morpholino) methanone], the pIC50 is 6.40 to 7.00.
The same measure for `CNC(=O)c1ccc(Nc2nc(OC(C)C)c3c(-c4cccc(S(C)(=O)=O)c4)c[nH]c3n2)c(OC)c1` [Example 187, 4-(4-isopropoxy-5-(3-(methylsulfonyl)phenyl)-7H-pyrrolo[2,3-d]pyrimidin-2-ylamino)-3-methoxy-N-methylbenzamide]: 6.40 to 7.00; for `CNC(=O)c1ccc(Nc2nc(OC3CCOCC3)c3c(-c4ccc5nc(C)oc5c4)c[nH]c3n2)c(OC)c1` [Example 90, 3-methoxy-N-methyl-4-(5-(2-methylbenzo[d]oxazol-6-yl)-4-(tetrahydro-2H-pyran-4-yloxy)-7H-pyrrolo[2,3-d]pyrimidin-2-ylamino)benzamide]: greater than 7.00; for `COc1cc(C(=O)N2CC2(C)C)ccc1Nc1nc(OC2CCCC2)c2c(-c3ccc4nc(C)oc4c3)c[nH]c2n1` [Example 312, (4-(4-(cyclopentyloxy)-5-(2-methylbenzo[d]oxazol-6-yl)-7H-pyrrolo[2,3-d]pyrimidin-2-ylamino)-3-methoxyphenyl)(2,2-dimethylaziridin-1-yl)methanone]: 6.00 to 6.40.
Consider `CNC(=O)c1cc(OC)c(Nc2nc(OC3CCCC3)c3c(-c4ccc5nc(C)oc5c4)c[nH]c3n2)cn1` [Example 280, 5-(4-(cyclopentyloxy)-5-(2-methylbenzo[d]oxazol-6-yl)-7H-pyrrolo[2,3-d]pyrimidin-2-ylamino)-4-methoxy-N-methylpicolinamide], for which the pIC50 is greater than 7.00.
With `COc1cc(C(=O)NCCN(C)C)ccc1Nc1nc(OC2CCOCC2)c2c(-c3ccc4nc(C)oc4c3)c[nH]c2n1` [Example 127, N-(2-(dimethylamino)ethyl)-3-methoxy-4-(5-(2-methylbenzo[d]oxazol-6-yl)-4-(tetrahydro-2H-pyran-4-yloxy)-7H-pyrrolo[2,3-d]pyrimidin-2-ylamino)benzamide] the figure was greater than 7.00; with `Cc1nc2ccc(-c3c[nH]c4nc(Nc5ccc(C(=O)N(C)C)cc5C)nc(OC5CCNCC5)c34)cc2o1` [Example 97, N,N,3-trimethyl-4-(5-(2-methylbenzo[d]oxazol-6-yl)-4-(piperidin-4-yloxy)-7H-pyrrolo [2,3-d]pyrimidin-2-ylamino) benzamide], 5.00 to 6.00; with `CNC(=O)c1ccc(Nc2nc(OCCOC)c3c(-c4ccc5nc(C)oc5c4)c[nH]c3n2)c(OC)c1` [Example 139, 3-methoxy-4-(4-(2-methoxyethoxy)-5-(2-methylbenzo[d]oxazol-6-yl)-7H-pyrrolo[2,3-d]pyrimidin-2-ylamino)-N-methylbenzamide], greater than 7.00.
The same measure for `CCOc1ccc(-c2c[nH]c3nc(Nc4ccc(C(=O)NC)cc4OC)nc(O[C@H]4CCOC4)c23)cn1` [Example 161, (S)-4-(5-(6-ethoxypyridin-3-yl)-4-(tetrahydrofuran-3-yloxy)-7H-pyrrolo[2,3-d]pyrimidin-2-ylamino)-3-methoxy-N-methylbenzamide]: 6.40 to 7.00; for `COc1cc(C(=O)NC(C)(C)C)ccc1Nc1nc(OC2CCCC2)c2c(-c3ccc4nc(C)oc4c3)c[nH]c2n1` [Example 224, N-tert-butyl-4-(4-(cyclopentyloxy)-5-(2-methylbenzo[d]oxazol-6-yl)-7H-pyrrolo[2,3-d]pyrimidin-2-ylamino)-3-methoxybenzamide]: 6.40 to 7.00.
For `CNC(=O)c1ccc(Nc2nc(OC3CCCC3)c3c(-c4ccc(O)c(Cl)c4)c[nH]c3n2)c(OC)c1` [Example 24, 4-(5-(3-chloro-4-hydroxyphenyl)-4-(cyclopentyloxy)-7H-pyrrolo[2,3-d]pyrimidin-2-ylamino)-3-methoxy-N-methylbenzamide], the pIC50 is greater than 7.00.
Take `CNC(=O)c1ccc(Nc2nc(O[C@H]3CC[C@H](O)CC3)c3c(-c4ccc(O)cc4)c[nH]c3n2)c(OC)c1` [Example 45, 4-(4-((1r,4R)-4-hydroxycyclo-hexyloxy)-5-(4-hydroxyphenyl)-7H-pyrrolo[2,3-d]pyrimidin-2-ylamino)-3-methoxy-N-methylbenzamide]: the pIC50 was greater than 7.00.
The same measure for `CNC(=O)c1ccc(Nc2nc(OC3CCCC3)c3c(-c4cccc(NS(C)(=O)=O)c4)c[nH]c3n2)c(OC)c1` [Example 57, 4-(4-(cyclopentyloxy)-5-(3-(methylsulfonamido)phenyl)-7H-pyrrolo[2,3-d]pyrimidin-2-ylamino)-3-methoxy-N-methylbenzamide]: 6.40 to 7.00.
The same measure for `CNC(=O)c1ccc(Nc2nc(OC3CCCC3)c3c(-c4cccc(S(C)(=O)=O)c4)c[nH]c3n2)c(OC)c1` [Example 63, 4-(4-(cyclopentyloxy)-5-(3-(methyl-sulfonyl)phenyl)-7H-pyrrolo[2,3-d]pyrimidin-2-ylamino)-3-methoxy-N-methylbenzamide]: greater than 7.00; for `CNC(=O)c1ccc(Nc2nc(O[C@H]3CCOC3)c3c(-c4ccc5nc(C)oc5c4)c[nH]c3n2)c(OC)c1` [Example 169, (S)-3-methoxy-N-methyl-4-(5-(2-methylbenzo[d]oxazol-6-yl)-4-(tetrahydrofuran-3-yloxy)-7H-pyrrolo[2,3-d]pyrimidin-2-ylamino)benzamide]: greater than 7.00.
For the molecule `CNC(=O)c1ccc(-c2c[nH]c3nc(Nc4ccc(C(=O)NC)cc4OC)nc(O[C@H]4CCOC4)c23)cc1` [Example 182, (S)-3-methoxy-N-methyl-4-(5-(4-(methylcarbamoyl)phenyl)-4-(tetrahydrofuran-3-yloxy)-7H-pyrrolo[2,3-d]pyrimidin-2-ylamino)benzamide], the pIC50 was greater than 7.00.
The same measure for `CNC(=O)c1ccc(-c2c[nH]c3nc(Nc4ccnn4C)nc(OC4CCCC4)c23)cc1` [Example 316, 4-(4-(cyclopentyloxy)-2-(1-methyl-1H-pyrazol-5-ylamino)-7H-pyrrolo [2,3-d]pyrimidin-5-yl)-N-methylbenzamide]: greater than 7.00; for `CNC(=O)c1ccc(Nc2nc(OC3CCOCC3)c3c(-c4ccnc(C(=O)NC)c4)c[nH]c3n2)c(OC)c1` [Example 288, 4-(2-(2-methoxy-4-(methylcarbamoyl)phenylamino)-4-(tetrahydro-2H-pyran-4-yloxy)-7H-pyrrolo[2,3-d]pyrimidin-5-yl)-N-methylpicolinamide]: 6.40 to 7.00.
The same measure for `CCOc1nc2ccc(-c3c[nH]c4nc(Nc5ccc(C(=O)NC)cc5OC)nc(OC5CCCC5)c34)cc2o1` [Example 293, 4-(4-(cyclopentyloxy)-5-(2-ethoxybenzo[d]oxazol-6-yl)-7H-pyrrolo[2,3-d]pyrimidin-2-ylamino)-3-methoxy-N-methylbenzamide]: 6.40 to 7.00; for `CNC(=O)c1ccc(Nc2nc(O[C@H]3CCOC3)c3c(-c4ccc5nc(C)oc5c4)c[nH]c3n2)c(C(C)C)c1` [Example 209, (S)-3-isopropyl-N-methyl-4-(5-(2-methylbenzo[d]oxazol-6-yl)-4-(tetrahydrofuran-3-yloxy)-7H-pyrrolo[2,3-d]pyrimidin-2-ylamino)benzamide]: 5.00 to 6.00.
Turning to `CNC(=O)c1ccc(Nc2nc(OC3CCOCC3)c3c(-c4nnco4)c[nH]c3n2)c(OC)c1` [Example 174, 4-(5-(1,3,4-oxadiazol-2-yl)-4-(tetrahydro-2H-pyran-4-yloxy)-7H-pyrrolo[2,3-d]pyrimidin-2-ylamino)-3-methoxy-N-methylbenzamide], the pIC50 was 6.00 to 6.40.
With `CNC(=O)c1ccc(Nc2nc(OC3CCCC3)c3c(-c4ccc5ncccc5c4)c[nH]c3n2)c(OC)c1` [Example 306, 4-(4-(cyclopentyloxy)-5-(quinolin-6-yl)-7H-pyrrolo[2,3-d]pyrimidin-2-ylamino)-3-methoxy-N-methylbenzamide] the figure was greater than 7.00.
The same measure for `CC[C@@H](C)Oc1nc(Nc2ccc(C(=O)NC)cc2OC)nc2[nH]cc(-c3ccc4nc(C)oc4c3)c12` [Example 203, (R)-4-(4-sec-butoxy-5-(2-methylbenzo[d]oxazol-6-yl)-7H-pyrrolo[2,3-d]pyrimidin-2-ylamino)-3-methoxy-N-methylbenzamide]: 6.40 to 7.00; for `CNC(=O)c1ccc(-c2c[nH]c3nc(Nc4ccc(C(=O)NC5COC5)cc4OC)nc(OC4CCCC4)c23)cc1` [Example 305, 4-(4-(cyclopentyloxy)-5-(4-(methylcarbamoyl)phenyl)-7H-pyrrolo[2,3-d]pyrimidin-2-ylamino)-3-methoxy-N-(oxetan-3-yl)benzamide]: greater than 7.00.
The same measure for `Cc1nc2ccc(-c3c[nH]c4nc(Nc5nn(C)cc5C)nc(OC5CCCC5)c34)cc2o1` [Example 297, 4-(cyclopentyloxy)-N-(1,4-dimethyl-1H-pyrazol-3-yl)-5-(2-methylbenzo[d]oxazol-6-yl)-7H-pyrrolo[2,3-d]pyrimidin-2-amine]: 5.00 to 6.00.
Turning to `COc1cc(C(=O)NC2COC2)ccc1Nc1nc(OC2CCCC2)c2c(-c3cnn(C)c3)c[nH]c2n1` [Example 303, 4-(4-(cyclopentyloxy)-5-(1-methyl-1H-pyrazol-4-yl)-7H-pyrrolo[2,3-d]pyrimidin-2-ylamino)-3-methoxy-N-(oxetan-3-yl)benzamide], the pIC50 is greater than 7.00.
The same measure for `Cc1cc(C(=O)N(C)C)ccc1Nc1nc(OC2CCOCC2)c2c(-c3ccc4nc(N)[nH]c4c3)c[nH]c2n1` [Example 116, 4-(5-(2-amino-1H-benzo[d]imidazol-6-yl)-4-(tetrahydro-2H-pyran-4-yloxy)-7H-pyrrolo[2,3-d]pyrimidin-2-ylamino)-N,N,3-trimethylbenzamide]: greater than 7.00; for `Cc1cc(C(=O)N(C)C)ccc1Nc1nc(O[C@H]2CCOC2)c2c(-c3cnn(C)c3)c[nH]c2n1` [Example 164, (S)-N,N,3-trimethyl-4-(5-(1-methyl-1H-pyrazol-4-yl)-4-(tetrahydrofuran-3-yloxy)-7H-pyrrolo[2,3-d]pyrimidin-2-ylamino)benzamide]: greater than 7.00.
